The text below walks through data of ChEMBL document CHEMBL2029256, “Structure-activity relationships of trimethoxybenzyl piperazine N-type calcium channel inhibitors” (Bioorg Med Chem Lett, 2012).

A word on the IC50: it is the concentration that gives 50% inhibition. In general, Emax refers to the size of the effect at its maximum, as opposed to the concentration needed.

Molecules are shown by their SMILES.

In assay [1] the target is Voltage-gated inwardly rectifying potassium channel KCNH2 (Homo sapiens, UniProt Q12809). Kind of assay: Inhibition of human Erg expressed in HEK293 cells by whole cell patch clamp analysis. In general terms: In patch-clamp work, channel activity is measured electrically.
Assay [2] can be described thus: Inhibition of rat N-type calcium channel alpha1B/alpha2delta-1/beta1b expressed in HEK293 cells by whole cell patch clamp analysis. It counts as cell-based.
Assay [3] deals with Rattus norvegicus. Kind of assay: Antiallodynic activity in rat chung model of neuropathic pain assessed as paw withdrawal at 30 mg/kg, po measured at 30 mins interval for 3 hrs relative to control.
The species entered for assay [4] is Rattus norvegicus. Kind of assay: animal or person. Conditions: ip, read-out: INH.
The test system of assay [5] is Rattus norvegicus. Kind of assay: Antiallodynic activity in rat chung model of neuropathic pain assessed as inhibition of nerve ligation-induced thermal hyperalgesia at 30 mg/kg, po measured at 30 mins interval for 3 hrs relative to control.
Assay [6] is filed under the species Rattus norvegicus. Kind of assay: animal or person. Conditions: ip, read-out: INH. This is another data set of the same source.
A short description of assay [7]: Inhibition of rat L-type calcium channel alpha1C/alpha2delta-1/beta1b expressed in HEK293 cells by whole cell patch clamp analysis. In kind it is cell-based.
The species named for assay [8] is Rattus norvegicus. Kind of assay: animal or person. The note with it: ip, read-out: INH. This is another data set of the same source.

Sequence of Voltage-gated inwardly rectifying potassium channel KCNH2 (Q12809 whole entry): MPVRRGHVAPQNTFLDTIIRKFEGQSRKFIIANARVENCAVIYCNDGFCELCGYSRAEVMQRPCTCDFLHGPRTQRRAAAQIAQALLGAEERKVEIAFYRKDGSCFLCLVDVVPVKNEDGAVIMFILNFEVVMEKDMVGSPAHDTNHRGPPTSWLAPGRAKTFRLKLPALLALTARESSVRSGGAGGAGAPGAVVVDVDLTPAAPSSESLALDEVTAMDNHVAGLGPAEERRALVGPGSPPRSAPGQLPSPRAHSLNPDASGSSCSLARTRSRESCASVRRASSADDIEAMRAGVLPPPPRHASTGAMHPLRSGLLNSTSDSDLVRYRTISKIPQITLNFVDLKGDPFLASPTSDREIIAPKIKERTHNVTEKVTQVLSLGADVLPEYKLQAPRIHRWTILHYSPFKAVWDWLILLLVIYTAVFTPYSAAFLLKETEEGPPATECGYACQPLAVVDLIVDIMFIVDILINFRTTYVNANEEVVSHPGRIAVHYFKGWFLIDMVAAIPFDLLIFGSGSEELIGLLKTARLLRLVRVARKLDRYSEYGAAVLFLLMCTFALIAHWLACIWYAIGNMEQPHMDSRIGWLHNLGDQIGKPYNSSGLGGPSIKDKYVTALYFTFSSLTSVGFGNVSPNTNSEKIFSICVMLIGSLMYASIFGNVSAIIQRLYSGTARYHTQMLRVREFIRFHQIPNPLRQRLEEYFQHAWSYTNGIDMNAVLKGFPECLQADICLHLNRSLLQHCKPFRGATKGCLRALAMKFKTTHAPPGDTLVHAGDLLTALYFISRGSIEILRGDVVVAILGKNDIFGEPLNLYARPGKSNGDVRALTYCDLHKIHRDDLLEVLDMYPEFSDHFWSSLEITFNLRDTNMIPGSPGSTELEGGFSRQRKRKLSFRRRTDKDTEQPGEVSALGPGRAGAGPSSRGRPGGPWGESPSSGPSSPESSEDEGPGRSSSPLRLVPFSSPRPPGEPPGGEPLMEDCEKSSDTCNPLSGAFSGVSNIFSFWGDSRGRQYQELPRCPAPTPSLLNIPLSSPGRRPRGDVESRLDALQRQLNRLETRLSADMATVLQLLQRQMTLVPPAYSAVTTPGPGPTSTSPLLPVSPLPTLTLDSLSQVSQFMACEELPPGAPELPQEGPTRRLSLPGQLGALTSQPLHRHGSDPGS

Turning to `COc1cc(CN2CCN(CCCCCC(c3ccc(F)cc3)c3ccc(F)cc3)CC2)cc(OC)c1OC`, the midpoint of inhibition in assay [1], the IC50, lay at 400 nM.
Take `COc1cc(CN2CCN(CCCCCC(c3ccc(F)cc3)c3ccc(F)cc3)CC2)cc(OC)c1O`: the IC50 in assay [2] turned out to be 400 nM.
On the same count and under the same terms, next, `COc1cc(C(=O)N2CCN(C(=O)CCCCC(c3ccc(F)cc3)c3ccc(F)cc3)CC2)cc(OC)c1O`: 600 nM.
As for `CC(C)(C)c1cc(CN2CCN(CCCCCC(c3ccc(F)cc3)c3ccc(F)cc3)CC2)cc(C(C)(C)C)c1O`, the IC50 in assay [2] amounted to 40 nM; in assay [1], 100 nM.
Take `CC(C)(C)c1cc(C(=O)N2CCN(CCCCCC(c3ccc(F)cc3)c3ccc(F)cc3)CC2)cc(C(C)(C)C)c1O`: the IC50 in assay [2] was found to be 150 nM.
As for `CC(C)(C)c1cc(CN2CCN(C(=O)CCCCC(c3ccc(F)cc3)c3ccc(F)cc3)CC2)cc(C(C)(C)C)c1O`, the IC50 in assay [2] was determined as 180 nM.
In the case of `CC(C)(C)c1cc(C(=O)N2CCN(C(=O)CCCCC(c3ccc(F)cc3)c3ccc(F)cc3)CC2)cc(C(C)(C)C)c1O`, the IC50 in assay [2] is 220 nM.
Turning to `COc1c(C(C)(C)C)cc(CN2CCN(CCCCCC(c3ccc(F)cc3)c3ccc(F)cc3)CC2)cc1C(C)(C)C`, in assay [2], the IC50 is 90 nM.
For `COc1c(C(C)(C)C)cc(C(=O)N2CCN(CCCCCC(c3ccc(F)cc3)c3ccc(F)cc3)CC2)cc1C(C)(C)C`, the IC50 in assay [2] amounted to 110 nM.
Still for that read-out and setting: next, `COc1c(C(C)(C)C)cc(CN2CCN(C(=O)CCCCC(c3ccc(F)cc3)c3ccc(F)cc3)CC2)cc1C(C)(C)C`: 100 nM.
Regarding `COc1c(C(C)(C)C)cc(C(=O)N2CCN(C(=O)CCCCC(c3ccc(F)cc3)c3ccc(F)cc3)CC2)cc1C(C)(C)C`, the Emax at 30 mg/kg in the assay on Rattus norvegicus [3] was found to be 1.9%; in the assay with Rattus norvegicus [5], 54.2%. Also, the inhibition in vivo at 30 mg/kg in the assay filed under Rattus norvegicus [4] came to 79%. The IC50 in assay [2] is 90 nM.
As to `CC(C)(C)c1cc(CN2CCN(CCCCCC(c3ccc(F)cc3)c3ccc(F)cc3)CC2)cc(C(C)(C)C)c1`, in assay [2], the IC50 is 140 nM.
Still for that read-out and setting: then `CC(C)(C)c1cc(C(=O)N2CCN(C(=O)CCCCC(c3ccc(F)cc3)c3ccc(F)cc3)CC2)cc(C(C)(C)C)c1`, with 300 nM.
Same read-out and setting: then `Fc1ccc(C(CCCCCN2CCN(Cc3cc(C(F)(F)F)cc(C(F)(F)F)c3)CC2)c2ccc(F)cc2)cc1`, with 1100 nM.
For the compound `O=C(CCCCC(c1ccc(F)cc1)c1ccc(F)cc1)N1CCN(C(=O)c2cc(C(F)(F)F)cc(C(F)(F)F)c2)CC1`, the IC50 in assay [2] was determined as 510 nM.
As for `COc1c(C(C)(C)C)cc(C(=O)N2CCN(C(=O)CCCCC(c3ccc(F)cc3)c3ccc(F)cc3)[C@@H](C)C2)cc1C(C)(C)C`, the IC50 in assay [2] amounted to 10 nM.
Consider `COc1c(C(C)(C)C)cc(C(=O)N2CCN(C(=O)CCCCC(c3ccc(F)cc3)c3ccc(F)cc3)C[C@@H]2C)cc1C(C)(C)C`, for which the Emax at 30 mg/kg with Rattus norvegicus [3] was 31.7%; in the assay on Rattus norvegicus [5], 85.8%. Further, the inhibition in vivo at 30 mg/kg in the assay filed under Rattus norvegicus [6] was found to be 50%; in the assay filed under Rattus norvegicus [4], 79%; in the assay listed under Rattus norvegicus [8] it was 61%. For the same compound, the figures for the IC50 in assay [2] and in assay [7] were 40 nM and 144000 nM, respectively.
As for `CC(C)(C)c1cc(C(=O)NCC2CCN(C(=O)CCCCC(c3ccc(F)cc3)c3ccc(F)cc3)C2)cc(C(C)(C)C)c1` (stereo not drawn), the IC50 in assay [2] came to 110 nM.
Still for that read-out and setting: next, `COc1c(C(C)(C)C)cc(C(=O)NCC2CCN(C(=O)CCCCC(c3ccc(F)cc3)c3ccc(F)cc3)C2)cc1C(C)(C)C` (stereo not drawn): 40 nM; `O=C(NCC1CCN(C(=O)CCCCC(c2ccc(F)cc2)c2ccc(F)cc2)C1)c1cc(C(F)(F)F)cc(C(F)(F)F)c1` (stereo not drawn): 210 nM.
With `O=C(NCC1CCN(C(=O)CCCCC(c2ccc(F)cc2)c2ccc(F)cc2)C1)c1cc(F)cc(C(F)(F)F)c1` (stereo not drawn), the IC50 in assay [2] was 750 nM.
Still for that read-out and setting: next, `COc1cc(C(=O)NCC2CCN(CCCCCC(c3ccc(F)cc3)c3ccc(F)cc3)C2)cc(OC)c1OC` (stereo not drawn): 280 nM.
Turning to `O=C(NCC1CCN(CCCCCC(c2ccc(F)cc2)c2ccc(F)cc2)C1)c1cc(C(F)(F)F)cc(C(F)(F)F)c1` (stereo not drawn), the IC50 in assay [2] stood at 150 nM.
On the same count and under the same terms, next, `COc1cc(CNCC2CCN(CCCCCC(c3ccc(F)cc3)c3ccc(F)cc3)C2)cc(OC)c1OC` (stereo not drawn): 60 nM; `CC(C)(C)c1cc(CNCC2CCN(CCCCCC(c3ccc(F)cc3)c3ccc(F)cc3)C2)cc(C(C)(C)C)c1O` (stereo not drawn): 50 nM.
Consider `CC(C)(C)c1cc(CNCC2CCN(CCCCCC(c3ccc(F)cc3)c3ccc(F)cc3)C2)cc(C(C)(C)C)c1` (stereo not drawn), for which the IC50 in assay [2] amounted to 30 nM; in assay [1] it was 460 nM.
Consider `CC(C)(C)c1cc(C(=O)NC[C@H]2CCN(C(=O)CCCCC(c3ccc(F)cc3)c3ccc(F)cc3)C2)cc(C(C)(C)C)c1`, for which, in assay [2], the IC50 is 160 nM.
As to `CC(C)(C)c1cc(C(=O)NC[C@@H]2CCN(C(=O)CCCCC(c3ccc(F)cc3)c3ccc(F)cc3)C2)cc(C(C)(C)C)c1`, in assay [2], the IC50 worked out at 120 nM.
Same read-out and setting: next, `COc1c(C(C)(C)C)cc(C(=O)NC[C@H]2CCN(C(=O)CCCCC(c3ccc(F)cc3)c3ccc(F)cc3)C2)cc1C(C)(C)C`: 150 nM.
Same read-out and setting: then `O=C(NC[C@H]1CCN(C(=O)CCCCC(c2ccc(F)cc2)c2ccc(F)cc2)C1)c1cc(C(F)(F)F)cc(C(F)(F)F)c1`, with 100 nM.
For `O=C(NC[C@@H]1CCN(C(=O)CCCCC(c2ccc(F)cc2)c2ccc(F)cc2)C1)c1cc(C(F)(F)F)cc(C(F)(F)F)c1`, in assay [2], the IC50 stood at 90 nM.
Still for that read-out and setting: next, `COc1cc(C(=O)NCC2CCN(C(=O)CCCCC(c3ccccc3)C3CCN(C)CC3)C2)cc(OC)c1OC` (stereo not drawn): 3200 nM.
The same measure, in the same setting: then `COc1c(C(C)C)cc(C(=O)NCC2CCN(C(=O)CCCCC(c3ccccc3)C3CCN(C)CC3)C2)cc1C(C)C` (stereo not drawn), with 1900 nM.
Take `COc1c(C)cc(C(=O)NCC2CCN(C(=O)CCCCC(c3ccccc3)C3CCN(C)CC3)C2)cc1C` (stereo not drawn): the IC50 in assay [2] was found to be 100 nM.
Turning to `CN1CCC(C(CCCCC(=O)N2CCC(CNC(=O)c3cc(Cl)cc(Cl)c3)C2)c2ccccc2)CC1` (stereo not drawn), the IC50 in assay [2] was 880 nM.
For `COc1cc(C(=O)N2CCC(CNC(=O)CCCCC(c3ccc(F)cc3)c3ccc(F)cc3)C2)cc(OC)c1OC` (stereo not drawn), the IC50 amounted to 840 nM in assay [2] and 750 nM in assay [1].
On to `COc1c(C(C)(C)C)cc(C(=O)N2CCC(CNC(=O)CCCCC(c3ccc(F)cc3)c3ccc(F)cc3)C2)cc1C(C)(C)C` (stereo not drawn), for which the IC50 in assay [2] came out at 1900 nM.
For the compound `COc1cc(CN2CCC(CNCCCCCC(c3ccc(F)cc3)c3ccc(F)cc3)C2)cc(OC)c1OC` (stereo not drawn), the IC50 in assay [2] came to 60 nM; in assay [1] it was 100 nM.
In the case of `CC(C)(C)c1cc(CN2CCC(CNCCCCCC(c3ccc(F)cc3)c3ccc(F)cc3)C2)cc(C(C)(C)C)c1O` (stereo not drawn), the IC50 in assay [2] was 4 nM.
On the same count and under the same terms, next, `COc1c(C(C)(C)C)cc(CN2CCC(CNCCCCCC(c3ccc(F)cc3)c3ccc(F)cc3)C2)cc1C(C)(C)C` (stereo not drawn): 32 nM.
